# Data as given in US20220349876A1, “USE OF DKK1 INHIBITOR IN PREVENTION AND/OR TREATMENT OF TUMOR CACHEXIA AND DISEASES ASSOCIATED WITH DIABETES” (SHANGHAI DONGTSU BIOSCIENCES CO., LTD., priority 2019, published 2022).
# “Also recorded” adds a separate entry of the source.
# Test system: STZ-induced diabetic mice
# Assay: STZ-induced type 1 diabetes mouse model with insulin or MDC rescue
# Type: in vivo
# Description: STZ-induced diabetes is a chemical modeling method for diabetes. Its full name is streptozotocin, which is a broad-spectrum antibiotic isolated from achromatic streptomycin. It can selectively damage islet 13 cells in a short period of time, causing 13 cell necrosis, resulting in varying degrees of blood insulin drop and blood sugar rise, resulting in insulin-dependent type 1 diabetes mellitus. […] Modelling criteria are non-fasting blood glucose values above 13.8 mM (250 mg/dl). The modeling steps are as follows: (4) According to the body weight, mice in the model group were injected intraperitoneally with 2% STZ-citric acid solution (160 mg/kg), and the mice in the control group were intraperitoneally injected with the corresponding volume of citrate buffer. 2 h after the injection, the mice were fed back. […] Specific steps are as follows: (3) According to the body weight, the insulin rescue group was subcutaneously injected with diluted insulin (1 U/kg/day), once a day at the same time for 7 consecutive days, and the control group was given a corresponding volume of normal saline. […] Body weight and random blood glucose were measured at different time points after injection. […] (1) Sample preparation: Store the freshly obtained mouse blood in an EDTA anticoagulation tube, stand at room temperature for 10 min, centrifuge at 1000 g for 15 min, and collect the supernatant, namely plasma. If it cannot be detected immediately, it should be subpackaged and stored at −80° C. to avoid repeated freezing. If precipitation occurs during storage, it should be fully thawed at room temperature before use, and centrifuged again.
substance,measurement,setting,value
insulin,blood 8-OHdG (ELISA),STZ diabetic mice,greatly attenuated
same,blood glucose concentration,STZ diabetic mice,reduces STZ-induced blood glucose elevation; also recorded: decreased from the first day of treatment and remained at a low level
same,body weight loss of diabetic mice,STZ diabetic mice,promoted the gradual recovery of the weight loss; also recorded: suppressed
same,blood Dkk1 (ELISA),"STZ diabetic mice, daily insulin",brought high blood Dkk1 concentrations back to basal levels; also recorded: at the basal level
same,"cardiac p53, p21, Bax/Bcl-2 and Cleaved Caspase-3","STZ diabetic mice, heart",greatly attenuated
same,cardiac γH2AX,"STZ diabetic mice, heart",decrease in γH2AX signaling
same,damage to myocardial structure (HE staining),"STZ diabetic mice, heart",prevented
same,translocation of cardiac β-arrestin1/2 in diabetic hearts,"STZ diabetic mice, heart",able to reverse this translocation
same,LRP5/6 on the cardiac membrane,"STZ diabetic mice, heart, Western blot",started to be up-regulated
same,translocation of insulin receptors on the cardiac membrane or in the plasma,substance alone (FIG. 19G),does not induce translocation of insulin receptors
